Reference: the supplement of paper PMC10307832

Tests used:
Assay in all cases: relative viability (nuclei count vs DMSO), 5 days (fraction); higher = more cells survive
Etoposide + Phenformin = compound: COc1cc([C@@H]2c3cc4c(cc3[C@@H](O[C@@H]3O[C@@H]5CO[C@@H](C)O[C@H]5[C@H](O)[C@H]3O)[C@H]3COC(=O)[C@H]23)OCO4)cc(OC)c1O [Etoposide] + N=C(N)NC(=N)NCCc1ccccc1 [Phenformin] (partner 250 µM)
Method in brief: (§1)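 Five library-drug doses in √10 steps were combined with a fixed anchor-drug dose, or a single drug was given alone, by pin tool to lung cancer cell lines in 1536-well plates the day after seeding. Nuclei were stained and counted after 5 days. Relative viability is the nuclei count in treated wells over that in vehicle wells, taken as the median of duplicate plates.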

Etoposide + Foretinib = compound: COc1cc([C@@H]2c3cc4c(cc3[C@@H](O[C@@H]3O[C@@H]5CO[C@@H](C)O[C@H]5[C@H](O)[C@H]3O)[C@H]3COC(=O)[C@H]23)OCO4)cc(OC)c1O [Etoposide] + COc1cc2c(Oc3ccc(NC(=O)C4(C(=O)Nc5ccc(F)cc5)CC4)cc3F)ccnc2cc1OCCCN1CCOCC1 [Foretinib] (partner 0.25 µM)
Method in brief: as §1

Bleomycin + Alpelisib = compound: CC1=C(N=C(N=C1N)[C@H](CC(=O)N)NC[C@@H](C(=O)N)N)C(=O)N[C@@H]([C@H](C2=CN=CN2)OC3C(C(C(C(O3)CO)O)O)OC4C(C(C(C(O4)CO)O)OC(=O)N)O)C(=O)N[C@H](C)[C@H]([C@H](C)C(=O)N[C@@H]([C@@H](C)O)C(=O)NCCC5=NC(=CS5)C6=NC(=CS6)C(=O)NCCC[S+](C)C)O [Bleomycin] + Cc1nc(NC(=O)N2CCC[C@H]2C(N)=O)sc1-c1ccnc(C(C)(C)C(F)(F)F)c1 [Alpelisib] (partner 2 µM); settings: main component drawn
Method in brief: as §1

Bleomycin + Dasatinib = compound: CC1=C(N=C(N=C1N)[C@H](CC(=O)N)NC[C@@H](C(=O)N)N)C(=O)N[C@@H]([C@H](C2=CN=CN2)OC3C(C(C(C(O3)CO)O)O)OC4C(C(C(C(O4)CO)O)OC(=O)N)O)C(=O)N[C@H](C)[C@H]([C@H](C)C(=O)N[C@@H]([C@@H](C)O)C(=O)NCCC5=NC(=CS5)C6=NC(=CS6)C(=O)NCCC[S+](C)C)O [Bleomycin] + Cc1nc(Nc2ncc(C(=O)Nc3c(C)cccc3Cl)s2)cc(N2CCN(CCO)CC2)n1 [Dasatinib] (partner 0.075 µM); settings: main component drawn
Method in brief: as §1

Cell Line | relative viability (Etoposide + Phenformin; first compound 0.01 µM) | relative viability (Etoposide + Phenformin; first compound 0.03162 µM) | relative viability (Etoposide + Phenformin; first compound 0.1 µM) | relative viability (Etoposide + Phenformin; first compound 0.3162 µM) | relative viability (Etoposide + Phenformin; first compound 1 µM) | relative viability (Etoposide + Foretinib; first compound 0.01 µM) | relative viability (Etoposide + Foretinib; first compound 0.03162 µM) | relative viability (Etoposide + Foretinib; first compound 0.1 µM) | relative viability (Etoposide + Foretinib; first compound 0.3162 µM) | relative viability (Etoposide + Foretinib; first compound 1 µM) | relative viability (Bleomycin + Alpelisib; first compound 0.01 µM) | relative viability (Bleomycin + Alpelisib; first compound 0.03162 µM) | relative viability (Bleomycin + Alpelisib; first compound 0.1 µM) | relative viability (Bleomycin + Alpelisib; first compound 0.3162 µM) | relative viability (Bleomycin + Alpelisib; first compound 1 µM) | relative viability (Bleomycin + Dasatinib; first compound 0.01 µM) | relative viability (Bleomycin + Dasatinib; first compound 0.03162 µM) | relative viability (Bleomycin + Dasatinib; first compound 0.1 µM) | relative viability (Bleomycin + Dasatinib; first compound 0.3162 µM) | relative viability (Bleomycin + Dasatinib; first compound 1 µM)
NCI-H2009 | 0.492 | 0.505 | 0.492 | 0.416 | 0.342 | 1.17 | 1.24 | 1.17 | 0.835 | 0.694 | 1.05 | 1.16 | 1.16 | 0.84 | 0.531 | 0.298 | 0.297 | 0.311 | 0.21 | 0.196
NCI-H2023 | 0.403 | 0.385 | 0.307 | 0.198 | 0.107 | 0.987 | 0.886 | 0.814 | 0.352 | 0.218 | 0.403 | 0.536 | 0.325 | 0.149 | 0.101 | 0.345 | 0.316 | 0.302 | 0.163 | 0.129
NCI-H2085 | 0.748 | 0.78 | 0.532 | 0.547 | 0.322 | 0.781 | 0.897 | 0.88 | 0.667 | 0.33 | 0.715 | 0.778 | 0.672 | 0.436 | 0.378 | 0.262 | 0.221 | 0.231 | 0.212 | 0.209
NCI-H2087 | 0.407 | 0.508 | 0.435 | 0.278 | 0.143 | 1.04 | 1.11 | 0.859 | 0.46 | 0.221 | 0.865 | 0.924 | 0.795 | 0.196 | 0.165 |  | 0.852 | 0.668 | 0.131 | 0.13
NCI-H2126 | 0.524 | 0.534 | 0.427 | 0.413 | 0.236 | 1.05 | 1.08 |  | 0.712 | 0.394 | 0.758 | 0.789 | 0.808 | 0.6 | 0.552 | 0.596 | 0.619 | 0.665 | 0.357 | 0.276
NCI-H2170 | 0.373 | 0.429 | 0.468 | 0.409 | 0.348 | 0.988 | 1.02 | 0.917 | 0.906 | 0.765 | 0.775 | 0.815 | 0.792 | 0.58 | 0.552 | 0.504 | 0.599 | 0.638 | 0.285 | 0.389
NCI-H2228 | 0.39 | 0.348 | 0.224 | 0.176 | 0.102 | 0.803 | 1.04 | 0.812 | 0.519 | 0.204 | 0.905 | 0.959 | 0.696 | 0.341 | 0.376 | 0.45 | 0.495 | 0.618 | 0.342 | 0.172
NCI-H2347 | 0.39 | 0.446 | 0.345 | 0.247 | 0.294 | 0.844 | 0.981 | 0.515 | 0.59 | 0.387 | 0.892 | 1.05 | 0.997 | 0.51 | 0.478 | 0.258 | 0.295 | 0.266 | 0.169 | 0.23
NCI-H2405 | 0.381 | 0.432 | 0.415 | 0.364 | 0.283 | 1.01 | 1.08 | 1.05 | 0.899 | 0.43 | 0.648 | 0.704 | 0.615 | 0.312 | 0.306 | 0.206 | 0.212 | 0.208 | 0.181 | 0.166
NCI-H3122 | 0.351 | 0.382 | 0.377 | 0.281 | 0.197 | 0.972 | 0.975 | 0.962 | 0.682 | 0.449 | 0.737 | 0.709 | 0.778 | 0.378 | 0.349 | 0.833 | 0.999 | 0.749 | 0.366 | 0.206
PC-3 [JPC-3] | 0.456 | 0.453 | 0.478 | 0.434 | 0.374 | 0.947 | 1.06 | 1.06 | 0.906 | 0.897 | 0.847 | 0.993 | 0.905 | 0.655 | 0.506 | 0.881 | 1.09 | 0.986 | 0.72 | 0.618
PC-14 | 0.621 | 0.662 | 0.485 | 0.372 | 0.203 | 0.953 | 0.922 | 0.995 | 0.934 | 0.832 | 0.626 | 0.534 | 0.303 | 0.0745 | 0.067 | 0.176 | 0.126 | 0.0817 | 0.0123 | 0.0118
RERF-LC-KJ | 0.414 | 0.469 | 0.42 | 0.36 | 0.329 | 0.788 | 0.866 | 0.639 | 0.83 | 0.767 | 0.58 | 0.589 | 0.53 | 0.253 | 0.266 | 0.498 | 0.56 | 0.468 | 0.246 | 0.191
SK-LU-1 | 0.476 | 0.605 | 0.322 | 0.224 | 0.183 | 0.765 | 0.701 | 0.484 | 0.329 | 0.18 | 0.889 | 0.735 | 0.902 | 0.502 | 0.412 | 0.169 | 0.166 | 0.173 | 0.144 | 0.104
SK-MES-1 | 0.654 | 0.683 | 0.582 | 0.402 | 0.248 | 0.856 | 1.13 | 0.719 | 0.704 | 0.433 | 0.731 | 0.531 | 0.59 | 0.315 | 0.185 | 0.329 | 0.316 | 0.232 | 0.0893 | 0.0963
SW 1573 | 0.341 | 0.36 | 0.255 | 0.183 | 0.142 | 0.873 | 0.931 | 0.475 | 0.537 | 0.278 | 0.643 | 0.64 | 0.596 | 0.302 | 0.342 | 0.253 | 0.289 | 0.434 | 0.174 | 0.118
